According to patent US8669247B2, “2,5-disubstituted arylsulfonamide CCR3 antagonists” (Axikin Pharmaceuticals, Inc., priority 2009, dated 2014):
Where a name gives a salt, the structure may show the parent alone.

Experiments:
CCR3 receptor = molecular target: T1, CCR3 receptor (UniProt P51677); assay: CCR3 Receptor Binding Assay ([125I]-labeled human eotaxin/CCL11 displacement on cells)
T1 sequence (P51677 1-355): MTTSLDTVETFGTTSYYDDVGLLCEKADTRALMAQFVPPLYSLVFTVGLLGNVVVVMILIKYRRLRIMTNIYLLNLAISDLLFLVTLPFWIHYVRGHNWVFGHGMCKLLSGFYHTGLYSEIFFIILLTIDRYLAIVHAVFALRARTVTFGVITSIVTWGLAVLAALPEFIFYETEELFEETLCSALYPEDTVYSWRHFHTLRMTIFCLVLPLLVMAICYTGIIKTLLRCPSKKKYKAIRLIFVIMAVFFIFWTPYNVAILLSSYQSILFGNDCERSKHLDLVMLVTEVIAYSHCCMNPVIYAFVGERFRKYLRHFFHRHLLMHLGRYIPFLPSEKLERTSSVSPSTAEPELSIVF
Description: Cells were washed once with PBS and resuspended in a binding buffer (25 mM HEPES pH 7.6, 5 mM MgCl2, 1 mM CaCl2, 0.5% BSA, 0.1% NaN3), […] of cell suspension (2×10^5 cells/well) and 0.1 nM [^125I]-labeled human eotaxin/CCL11 (2000 Ci/mmol specific activity) were mixed in a 96-well U-bottom polypropylene plate, and incubated for 60 min at room temperature for the binding reaction. The cell suspension was then transferred to a filtration plate (#MAFB, Millipore), and washed 3 times with the binding buffer containing 0.5 M NaCl, scintillant added, and the radioactivity was counted on a TopCount (Packard). For the determination of non-specific binding, the cell suspension and [^125I]-labeled human eotaxin/CCL11 were incubated in the presence of 500 nM of unlabeled human eotaxin/CCL11. See, lino et al., “Molecular cloning and functional characterization of cynomolgus monkey (Macaca fascicularis) CC chemokine receptor, CCR3,” Cytokine 2002, 19, 276-286.

[1] = Free (free form of the compound)
[2] = HCl: hydrochloric acid salt of the corresponding compound

| melting point [°C] | Ki (CCR3 receptor; [1]) [µM] | Ki (CCR3 receptor; [2]) [µM] | SMILES |
| --- | --- | --- | --- |
| 125 to 143 | – | – | N#Cc1ccc(Oc2cc(F)ccc2F)c(S(=O)(=O)N2CCNCC2)c1 (as salt: hydrochloride) [Compound 52, 4-(2,5-Difluorophenoxy)-3-(piperazin-1-ylsulfonyl)benzonitrile] |
| 157 to 159 | – | – | CC1CN(S(=O)(=O)c2cc(C#N)ccc2Oc2cc(F)ccc2F)CC(C)N1 (stereo not drawn) (as salt: hydrochloride) [Compound 53, 4-(2,5-Difluorophenoxy)-3-(3,5-dimethylpiperazin-1-ylsulfonyl)benzonitrile] |
| 179 to 182 | – | – | CC(C)N1CCN(S(=O)(=O)c2cc(C#N)ccc2Oc2cc(F)ccc2F)CC1 (as salt: hydrochloride) [Compound 54, 4-(2,5-Difluorophenoxy)-3-(4-isopropylpiperazin-1-ylsulfonyl)benzonitrile] |
| 176 to 180 | – | – | CC1CN(S(=O)(=O)c2cc(C#N)ccc2Sc2cc(Cl)ccc2Cl)CC(C)N1 (stereo not drawn) (as salt: hydrochloride) [Compound 79, 4-(2,5-Dichlorophenylthio)-3-(3,5-dimethylpiperazin-1-ylsulfonyl)benzonitrile] |
| 165 to 168 | > 0.005 | – | N#Cc1ccc(Oc2cc(F)ccc2F)c(S(=O)(=O)N2CCOCC2)c1 [Compound 58, 4-(2,5-Difluorophenoxy)-3-(morpholinosulfonyl)benzonitrile] |
| 216 to 219 | 0.1 to 0.5 | – | N#Cc1ccc(Sc2cc(Cl)ccc2Cl)c(S(=O)(=O)N2CCOCC2)c1 [Compound 82, 4-(2,5-Dichlorophenylthio)-3-(morpholinosulfonyl)benzonitrile] |
| – | 0.01 to 0.025 | – | CCCC(C)N1CCN(S(=O)(=O)c2cc(C#N)ccc2Oc2cc(Cl)ccc2Cl)CC1 (stereo not drawn) [Compound 90, 4-(2,5-Dichlorophenoxy)-3-(4-(pentan-2-yl)piperazin-1-ylsulfonyl)-benzonitrile] |
| – | 0.01 to 0.025 | – | N#Cc1ccc(Oc2cc(Cl)ccc2Cl)c(S(=O)(=O)N2CCN(C3CCCCCC3)CC2)c1 [Compound 91, 3-(4-Cycloheptylpiperazin-1-ylsulfonyl)-4-(2,5-dichlorophenoxy)benzonitrile] |
| – | 0.025 to 0.1 | – | CN1CCCN(S(=O)(=O)c2cc(C#N)ccc2Oc2cc(Cl)ccc2Cl)CC1 [Compound 92, 4-(2,5-Dichlorophenoxy)-3-(4-methyl-1,4-diazepan-1-ylsulfonyl)benzonitrile] |
| – | > 0.005 | – | CCCCc1nc(Cl)c2n1C(=O)N(C1CCN(S(=O)(=O)c3cc(C#N)ccc3Oc3cc(Cl)ccc3Cl)CC1)C2 [Compound 93, 3-(4-(5-Butyl-7-chloro-3-oxo-1H-imidazo[1,5-c]imidazol-2(3H)-yl)piperidin-1-ylsulfonyl)-4-(2,5-dichlorophenoxy)benzonitrile] |
| – | 0.1 to 0.5 | – | N#Cc1ccc(Oc2cc(Cl)ccc2Cl)c(S(=O)(=O)NCCN2CCOCC2)c1 [Compound 95, 5-Cyano-2-(2,5-dichlorophenoxy)-N-(2-morpholinoethyl)benzenesulfonamide] |
| – | 0.025 to 0.1 | – | CN1CCN(S(=O)(=O)c2cc(C#N)ccc2Oc2cc(Cl)ccc2Cl)CC1 [Compound 96, 4-(2,5-Dichlorophenoxy)-3-(4-methylpiperazin-1-ylsulfonyl)benzonitrile] |
| – | 0.1 to 0.5 | – | CC(C)(O)C1CCN(S(=O)(=O)c2cc(C#N)ccc2Oc2cc(Cl)ccc2Cl)CC1 [Compound 97, 4-(2,5-Dichlorophenoxy)-3-(4-(2-hydroxypropan-2-yl)piperidin-1-ylsulfonyl)benzonitrile] |
| – | – | 0.025 to 0.1 | CC(C)N1CCCN(S(=O)(=O)c2cc(C#N)ccc2Oc2cc(Cl)ccc2Cl)CC1 [Compound 98, 4-(2,5-Dichlorophenoxy)-3-(4-isopropyl-1,4-diazepan-1-ylsulfonyl)benzonitrile] |
| – | 0.01 to 0.025 | – | CCN1CCN(S(=O)(=O)c2cc([N+](=O)[O-])ccc2Sc2cc(Cl)ccc2Cl)CC1 [Compound 99] |
| – | ≤ 0.01 | – | CCN1CCN(S(=O)(=O)c2cc([N+](=O)[O-])ccc2Oc2cc(Cl)ccc2Cl)CC1 [Compound 100, 1-(2-(2,5-Dichlorophenoxy)-5-nitrophenylsulfonyl)-4-ethylpiperazine] |
| – | > 0.005 | – | CCN1CCN(S(=O)(=O)c2cc([N+](=O)[O-])ccc2Sc2cc(C)ccc2C)CC1 [Compound 101, 1-(2-(2,5-Dimethylphenylthio)-5-nitrophenylsulfonyl)-4-ethylpiperazine] |
| – | > 0.005 | – | CCN1CCN(S(=O)(=O)c2cc([N+](=O)[O-])ccc2Oc2cc(C)ccc2C)CC1 [Compound 102, 1-(2-(2,5-Dimethylphenoxy)-5-nitrophenylsulfonyl)-4-ethylpiperazine] |

| melting point [°C] | Ki (CCR3 receptor; [1]) [µM] | Ki (CCR3 receptor; [2]) [µM] | SMILES |
| --- | --- | --- | --- |
| – | > 0.005 | – | CC1CN(S(=O)(=O)c2cc([N+](=O)[O-])ccc2Sc2cc(Cl)ccc2Cl)CC(C)N1 (stereo not drawn) [Compound 103, 1-(2-(2,5-Dichlorophenylthio)-5-nitrophenylsulfonyl)-3,5-dimethylpiperazine] |
| – | > 0.005 | – | Cc1ccc(C)c(Sc2ccc([N+](=O)[O-])cc2S(=O)(=O)N2CC(C)NC(C)C2)c1 (stereo not drawn) [Compound 105, 1-(2-(2,5-Dimethylphenylthio)-5-nitrophenylsulfonyl)-3,5-dimethylpiperazine] |
| – | > 0.005 | – | Cc1ccc(C)c(Oc2ccc([N+](=O)[O-])cc2S(=O)(=O)N2CC(C)NC(C)C2)c1 (stereo not drawn) [Compound 106, 1-(2-(2,5-Dimethylphenoxy)-5-nitrophenylsulfonyl)-3,5-dimethylpiperazine] |
| – | ≤ 0.01 | – | CC(C)N1CCN(S(=O)(=O)c2cc([N+](=O)[O-])ccc2Oc2cc(Cl)ccc2Cl)CC1 [Compound 107, 1-(2-(2,5-Dichlorophenoxy)-5-nitrophenylsulfonyl)-4-isopropylpiperazine] |
| – | ≤ 0.01 | – | CC(C)N1CCN(S(=O)(=O)c2cc([N+](=O)[O-])ccc2Sc2cc(Cl)ccc2Cl)CC1 [Compound 108, 1-(2-(2,5-Dichlorophenylthio)-5-nitrophenylsulfonyl)-4-isopropylpiperazine] |
| – | > 0.005 | – | Cc1ccc(C)c(Oc2ccc([N+](=O)[O-])cc2S(=O)(=O)N2CCN(C(C)C)CC2)c1 [Compound 109, 1-(2-(2,5-Dimethylphenoxy)-5-nitrophenylsulfonyl)-4-isopropylpiperazine] |
| – | 0.01 to 0.025 | – | O=[N+]([O-])c1ccc(Sc2cc(Cl)ccc2Cl)c(S(=O)(=O)N2CCN(C3CCCCC3)CC2)c1 [Compound 118, 1-Cyclohexyl-4-(2-(2,5-dichlorophenylthio)-5-nitrophenylsulfonyl)piperazine] |
| – | ≤ 0.01 | – | O=[N+]([O-])c1ccc(Oc2cc(Cl)ccc2Cl)c(S(=O)(=O)N2CCN(C3CCCCC3)CC2)c1 [Compound 119, 1-Cyclohexyl-4-(2-(2,5-dichlorophenoxy)-5-nitrophenylsulfonyl)piperazine] |
| – | > 0.005 | – | Cc1ccc(C)c(Sc2ccc([N+](=O)[O-])cc2S(=O)(=O)N2CCN(C3CCCCC3)CC2)c1 [Compound 120, 1-Cyclohexyl-4-(2-(2,5-dimethylphenylthio)-5-nitrophenylsulfonyl)piperazine] |
| – | ≤ 0.01 | – | Cc1ccc(C)c(Oc2ccc([N+](=O)[O-])cc2S(=O)(=O)N2CCN(C3CCCCC3)CC2)c1 [Compound 121, 1-Cyclohexyl-4-(2-(2,5-dimethylphenoxy)-5-nitrophenylsulfonyl)piperazine] |
| – | ≤ 0.01 | – | O=C1CN(S(=O)(=O)c2cc([N+](=O)[O-])ccc2Sc2cc(Cl)ccc2Cl)CCN1 [Compound 124, 4-(2-(2,5-Dichlorophenylthio)-5-nitrophenylsulfonyl)piperazin-2-one] |
| – | > 0.005 | – | Cc1ccc(C)c(Sc2ccc([N+](=O)[O-])cc2S(=O)(=O)N2CCNC(=O)C2)c1 [Compound 125, 4-(2-(2,5-Dimethylphenylthio)-5-nitrophenylsulfonyl)piperazin-2-one] |
| – | 0.01 to 0.025 | – | O=C1CN(S(=O)(=O)c2cc([N+](=O)[O-])ccc2Oc2cc(Cl)ccc2Cl)CCN1 [Compound 126, 4-(2-(2,5-Dichlorophenoxy)-5-nitrophenylsulfonyl)piperazin-2-one] |
| – | > 0.005 | – | O=[N+]([O-])c1ccc(Sc2cc(Cl)ccc2Cl)c(S(=O)(=O)N2CCCNCC2)c1 [Compound 127, 1-(2-(2,5-Dichlorophenylthio)-5-nitrophenylsulfonyl)-1,4-diazepane] |
| – | > 0.005 | – | CN1CCN(S(=O)(=O)c2cc([N+](=O)[O-])ccc2Sc2cc(Cl)ccc2Cl)CC1 [Compound 133, 1-(2-(2,5-Dichlorophenylthio)-5-nitrophenylsulfonyl)-4-methylpiperazine] |
| – | > 0.005 | – | Cc1ccc(C)c(Sc2ccc(C#N)cc2S(=O)(=O)N2CCS(=O)(=O)CC2)c1 [Compound 140] |
| – | > 0.005 | 0.025 to 0.1 | O=[N+]([O-])c1ccc(Oc2cc(Cl)ccc2Cl)c(S(=O)(=O)N2CCNCC2)c1 [Compound 147, 1-(2-(2,5-Dichlorophenoxy)-5-nitrophenylsulfonyl)piperazine] |
| – | – | > 0.005 | Cc1ccc(C)c(Oc2ccc([N+](=O)[O-])cc2S(=O)(=O)N2CCNCC2)c1 [Compound 148, 1-(2-(2,5-Dimethylphenoxy)-5-nitrophenylsulfonyl)piperazine] |
